According to patent US8138215B2, “Hepatitis C virus inhibitors” (Bristol-Myers Squibb Company, priority 2009, dated 2012):
Like-named read-outs stand apart in the source and are kept apart here.

Test system: HCV 1b genotype
Experiment: HCV Replicon assay, 1b genotype
Type: cell-based
Conditions: Hepatitis C virus, HCV 1b genotype replicon
Description: An HCV Replicon assay was utilized in the present disclosure, and was prepared, conducted and validated as described in commonly owned PCT/US2006/022197 and in O'Boyle et. al. Antimicrob Agents Chemother. 2005 April; 49(4):1346-53. Assay methods incorporating luciferase reporters have also been used as described (Apath.com).
HCV-neo replicon cells and replicon cells containing mutations in the NS5A region were used to test the currently described family of compounds. The compounds were determined to have more than 10-fold less inhibitory activity on cells containing mutations than wild-type cells. Thus, the compounds of the present disclosure can be effective in inhibiting the function of the HCV NS5A protein and are understood to be as effective in combinations as previously described in application PCT/US2006/022197 and commonly owned WO/04014852. Further, the compounds of the present disclosure can be effective against the HCV 1b genotype. It should also be understood that the compounds of the present disclosure can inhibit multiple genotypes of HCV. […] In one embodiment, compounds of the present disclosure are active against the 1a, 1b, 2a, 2b, 3a, 4a, and 5a genotypes. EC50 values against HCV 1b are as follows: A=5 pM to 5 nM.

[1] = read-out: Range (EC50 values against HCV 1b)
[2] = read-out: 1b EC50 (Effective 50% inhibitory concentration)

| Compound | EC50 [1] [pM] | EC50 [2] [pM] |
| --- | --- | --- |
| O=C(N[C@@H](C(=O)N1[C@@H]2C[C@@H]2C[C@H]1c1nc(-c2ccc(-c3ccc(-c4cnc([C@@H]5C[C@H]6C[C@H]6N5C(=O)[C@H](NC(=O)OC5CCCCC5)c5ccccc5)[nH]4)cc3)cc2)c[nH]1)c1ccccc1)OC1CCCCC1 [Example CQ-8, Cyclohexyl ((1R)-2-((1R,3S,5R)-3-(4-(4′-(2-((1R,3S,5R)-2-((2R)-2-(((cyclohexyloxy)carbonyl)amino)-2-phenylacetyl)-2-azabicyclo[3.1.0]hex-3-yl)-1H-imidazol-5-yl)-4-biphenylyl)-1H-imidazol-2-yl)-2-azabicyclo[3.1.0]hex-2-yl)-2-oxo-1-phenylethyl)carbamate] | 5 to 5000 |  |
| O=C(N[C@@H](C(=O)N1CCC[C@H]1c1nc(-c2ccc(-c3ccc(-c4cnc([C@@H]5CCCN5C(=O)[C@H](NC(=O)OC5CCCCC5)c5ccccc5)[nH]4)cc3)cc2)c[nH]1)c1ccccc1)OC1CCCCC1 [Example CQ-4, Cyclohexyl ((1R)-2-((2S)-2-(4-(4′-(2-((2S)-1-((2R)-2-(((cyclohexyloxy)carbonyl)amino)-2-phenylacetyl)-2-pyrrolidinyl)-1H-imidazol-5-yl)-4-biphenylyl)-1H-imidazol-2-yl)-1-pyrrolidinyl)-2-oxo-1-phenylethyl)carbamate] | 5 to 5000 |  |
| O=C(N[C@@H](C(=O)N1CCC[C@H]1c1nc(-c2ccc(-c3ccc(-c4cnc([C@@H]5CCCN5C(=O)[C@H](NC(=O)OC5CC5)c5ccccc5)[nH]4)cc3)cc2)c[nH]1)c1ccccc1)OC1CC1 [Example CQ-3, Cyclopropyl ((1R)-2-((2S)-2-(4-(4′-(2-((2S)-1-((2R)-2-(((cyclopropyloxy)carbonyl)amino)-2-phenylacetyl)-2-pyrrolidinyl)-1H-imidazol-5-yl)-4-biphenylyl)-1H-imidazol-2-yl)-1-pyrrolidinyl)-2-oxo-1-phenylethyl)carbamate] | 5 to 5000 |  |
| O=C(N[C@@H](C(=O)N1[C@@H]2C[C@@H]2C[C@H]1c1nc(-c2ccc(-c3ccc(-c4cnc([C@@H]5C[C@H]6C[C@H]6N5C(=O)[C@H](NC(=O)OC5CC5)c5ccccc5)[nH]4)cc3)cc2)c[nH]1)c1ccccc1)OC1CC1 [Example CQ-7, Cyclopropyl ((1R)-2-((1R,3S,5R)-3-(4-(4′-(2-((1R,3S,5R)-2-((2R)-2-(((cyclopropyloxy)carbonyl)amino)-2-phenylacetyl)-2-azabicyclo[3.1.0]hex-3-yl)-1H-imidazol-5-yl)-4-biphenylyl)-1H-imidazol-2-yl)-2-azabicyclo[3.1.0]hex-2-yl)-2-oxo-1-phenylethyl)carbamate] | 5 to 5000 | 6.1 |
| O=C(N[C@@H](C(=O)N1[C@@H]2C[C@@H]2C[C@H]1c1nc(-c2ccc(-c3ccc(-c4c[nH]c([C@@H]5C[C@H]6C[C@H]6N5C(=O)[C@H](NC(=O)OC5CCCC5)c5ccccc5)n4)cc3)cc2)c[nH]1)c1ccccc1)OC1CCCC1 [Example CQ-6, Cyclopentyl ((1R)-2-((1R,3S,5R)-3-(4-(4′-(2-((1R,3S,5R)-2-((2R)-2-(((cyclopentyloxy)carbonyl)amino)-2-phenylacetyl)-2-azabicyclo[3.1.0]hex-3-yl)-1H-imidazol-5-yl)-4-biphenylyl)-1H-imidazol-2-yl)-2-azabicyclo[3.1.0]hex-2-yl)-2-oxo-1-phenylethyl)carbamate] | 5 to 5000 |  |
| O=C(N[C@@H](C(=O)N1[C@@H]2C[C@@H]2C[C@H]1c1nc(-c2ccc(-c3ccc(-c4c[nH]c([C@@H]5C[C@H]6C[C@H]6N5C(=O)[C@H](NC(=O)OC5CCC5)c5ccccc5)n4)cc3)cc2)c[nH]1)c1ccccc1)OC1CCC1 [Example CQ-5, Cyclobutyl ((1R)-2-((1R,3S,5R)-3-(4-(4′-(2-((1R,3S,5R)-2-((2R)-2-(((cyclobutyloxy)carbonyl)amino)-2-phenylacetyl)-2-azabicyclo[3.1.0]hex-3-yl)-1H-imidazol-5-yl)-4-biphenylyl)-1H-imidazol-2-yl)-2-azabicyclo[3.1.0]hex-2-yl)-2-oxo-1-phenylethyl)carbamate] | 5 to 5000 |  |
| O=C(N[C@@H](C(=O)N1CCC[C@H]1c1nc(-c2ccc(-c3ccc(-c4c[nH]c([C@@H]5CCCN5C(=O)[C@H](NC(=O)OC5CCCC5)c5ccccc5)n4)cc3)cc2)c[nH]1)c1ccccc1)OC1CCCC1 [Example CQ-2, Cyclopentyl ((1R)-2-((2S)-2-(4-(4′-(2-((2S)-1-((2R)-2-(((cyclopentyloxy)carbonyl)amino)-2-phenylacetyl)-2-pyrrolidinyl)-1H-imidazol-5-yl)-4-biphenylyl)-1H-imidazol-2-yl)-1-pyrrolidinyl)-2-oxo-1-phenylethyl)carbamate] | 5 to 5000 | 12 |
| O=C(N[C@@H](C(=O)N1CCC[C@H]1c1nc(-c2ccc(-c3ccc(-c4c[nH]c([C@@H]5CCCN5C(=O)[C@H](NC(=O)OC5CCC5)c5ccccc5)n4)cc3)cc2)c[nH]1)c1ccccc1)OC1CCC1 [Example CQ-1, Cyclobutyl ((1R)-2-((2S)-2-(4-(4′-(2-((2S)-1-((2R)-2-(((cyclobutyloxy)carbonyl)amino)-2-phenylacetyl)-2-pyrrolidinyl)-1H-imidazol-5-yl)-4-biphenylyl)-1H-imidazol-2-yl)-1-pyrrolidinyl)-2-oxo-1-phenylethyl)carbamate] | 5 to 5000 |  |
